Test results published in PubChem BioAssay AID1918932 (Molecular Pharmacology Branch, DTP, NCI, 2023).
Where “and” joins values, the source holds several entries; their conditions need not be identical. Equal values may be shown once.

Test system: 171881-019-R-J1-PDC complex spheroid viability
Test: Anticancer human tumor 171881-019-R-J1-PDC patient-derived invasive breast carcinoma cell line growth inhibition
Settings: for viability, T/C: stronger effect = lower value
Summary of the method: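 Drug combinations with the LSD1 inhibitor iadademstat tested on tumor cells co-cultured as spheroids with endothelial cells and mesenchymal stem cells. Concentrations descended in half-log increments from clinical Cmax or 10 microM.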

[1] = curve of first compound, second compound 0.1 µM
[2] = curve of first compound, second compound 0.316 µM
[3] = curve of first compound, second compound 1 µM
[4] = curve of first compound, second compound 3.16 µM
[5] = curve of first compound, second compound 10 µM
[6] = second compound 0.1 µM, first compound 0.00949 µM
[7] = second compound 0.1 µM, first compound 0.03 µM
[8] = second compound 0.1 µM, first compound 0.0949 µM
[9] = second compound 0.1 µM, first compound 0.3 µM
[10] = second compound 0.1 µM, first compound 0.949 µM
[11] = second compound 0.1 µM, first compound 3 µM
[12] = second compound 0.316 µM, first compound 0.00949 µM
[13] = second compound 0.316 µM, first compound 0.03 µM
[14] = second compound 0.316 µM, first compound 0.0949 µM
[15] = second compound 0.316 µM, first compound 0.3 µM
[16] = second compound 0.316 µM, first compound 0.949 µM
[17] = second compound 0.316 µM, first compound 3 µM
[18] = second compound 1 µM, first compound 0.00949 µM
[19] = second compound 1 µM, first compound 0.03 µM
[20] = second compound 1 µM, first compound 0.0949 µM
[21] = second compound 1 µM, first compound 0.3 µM
[22] = second compound 1 µM, first compound 0.949 µM
[23] = second compound 1 µM, first compound 3 µM
[24] = second compound 3.16 µM, first compound 0.00949 µM
[25] = second compound 3.16 µM, first compound 0.03 µM
[26] = second compound 3.16 µM, first compound 0.0949 µM
[27] = second compound 3.16 µM, first compound 0.3 µM
[28] = second compound 3.16 µM, first compound 0.949 µM
[29] = second compound 3.16 µM, first compound 3 µM
[30] = second compound 10 µM, first compound 0.00949 µM
[31] = second compound 10 µM, first compound 0.03 µM
[32] = second compound 10 µM, first compound 0.0949 µM
[33] = second compound 10 µM, first compound 0.3 µM
[34] = second compound 10 µM, first compound 0.949 µM
[35] = second compound 10 µM, first compound 3 µM
[36] = second compound 0.1 µM, first compound 0.00316 µM
[37] = second compound 0.1 µM, first compound 0.01 µM
[38] = second compound 0.1 µM, first compound 0.0316 µM
[39] = second compound 0.1 µM, first compound 0.1 µM
[40] = second compound 0.316 µM, first compound 0.00316 µM
[41] = second compound 0.316 µM, first compound 0.01 µM
[42] = second compound 0.316 µM, first compound 0.0316 µM
[43] = second compound 0.316 µM, first compound 0.1 µM
[44] = second compound 1 µM, first compound 0.00316 µM
[45] = second compound 1 µM, first compound 0.01 µM
[46] = second compound 1 µM, first compound 0.0316 µM
[47] = second compound 1 µM, first compound 0.1 µM
[48] = second compound 3.16 µM, first compound 0.00316 µM
[49] = second compound 3.16 µM, first compound 0.01 µM
[50] = second compound 3.16 µM, first compound 0.0316 µM
[51] = second compound 3.16 µM, first compound 0.1 µM
[52] = second compound 10 µM, first compound 0.00316 µM
[53] = second compound 10 µM, first compound 0.01 µM
[54] = second compound 10 µM, first compound 0.0316 µM
[55] = second compound 10 µM, first compound 0.1 µM
[56] = second compound 0.1 µM, first compound 0.316 µM
[57] = second compound 0.1 µM, first compound 1 µM
[58] = second compound 0.316 µM, first compound 0.316 µM
[59] = second compound 0.316 µM, first compound 1 µM
[60] = second compound 1 µM, first compound 0.316 µM
[61] = second compound 1 µM, first compound 1 µM
[62] = second compound 3.16 µM, first compound 0.316 µM
[63] = second compound 3.16 µM, first compound 1 µM
[64] = second compound 10 µM, first compound 0.316 µM
[65] = second compound 10 µM, first compound 1 µM
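Also: spheroids exposed to agents for 7 days after 3 days growth.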

NS(=O)(=O)OCC1CC(n2ccc3c(NC4CCc5ccccc54)ncnc32)CC1O (configuration not stated) + NC1CC1c1ccc(-c2cccc(O)c2)cc1
IC50 [1]: 10.3 nM
IC50 [2]: 11.3 nM
IC50 [3]: 10.1 nM
IC50 [4]: 12.8 nM
IC50 [5]: < 9.49 nM
viability, T/C [6]: 51.1%
viability, T/C [7]: 36.4%
viability, T/C [8]: 26.7%
viability, T/C [9]: 27.4%
viability, T/C [10]: 27.1%
viability, T/C [11]: 23.3%
viability, T/C [12]: 52.9%
viability, T/C [13]: 36.4%
viability, T/C [14]: 31.3%
viability, T/C [15]: 28.1%
viability, T/C [16]: 31.8%
viability, T/C [17]: 21.4%
viability, T/C [18]: 51.3%
viability, T/C [19]: 27.4%
viability, T/C [20]: 27.8%
viability, T/C [21]: 30%
viability, T/C [22]: 27.5%
viability, T/C [23]: 21.9%
viability, T/C [24]: 56.5%
viability, T/C [25]: 31.2%
viability, T/C [26]: 26%
viability, T/C [27]: 24.1%
viability, T/C [28]: 26.9%
viability, T/C [29]: 21.1%
viability, T/C [30]: 45.1%
viability, T/C [31]: 30.6%
viability, T/C [32]: 27.1%
viability, T/C [33]: 27.6%
viability, T/C [34]: 25.4%
viability, T/C [35]: 19.5%

COc1cc(C2c3cc4c(cc3C(OC3OC5COC(C)OC5C(O)C3O)C3COC(=O)C23)OCO4)cc(OC)c1O (configuration not stated) + NC1CCC(NC2CC2c2ccccc2)CC1
IC50 [1]: 439 nM
IC50 [2]: 440 nM
IC50 [3]: 511 nM
IC50 [4]: 536 nM
IC50 [5]: 649 nM
viability, T/C [6]: 72.8%
viability, T/C [7]: 90.8%
viability, T/C [8]: 87.9%
viability, T/C [9]: 56.8%
viability, T/C [10]: 33.2%
viability, T/C [11]: 18.5%
viability, T/C [12]: 76.8%
viability, T/C [13]: 98.2%
viability, T/C [14]: 94%
viability, T/C [15]: 58.1%
viability, T/C [16]: 33.1%
viability, T/C [17]: 18.4%
viability, T/C [18]: 87.6%
viability, T/C [19]: 87.8%
viability, T/C [20]: 86.5%
viability, T/C [21]: 57.9%
viability, T/C [22]: 39%
viability, T/C [23]: 19.8%
viability, T/C [24]: 80.7%
viability, T/C [25]: 99.1%
viability, T/C [26]: 96.4%
viability, T/C [27]: 60.3%
viability, T/C [28]: 40.8%
viability, T/C [29]: 22.2%
viability, T/C [30]: 80.9%
viability, T/C [31]: 104%
viability, T/C [32]: 95%
viability, T/C [33]: 67.8%
viability, T/C [34]: 42.5%
viability, T/C [35]: 25.8%

CC(C)CC(NC(=O)C(Cc1ccccc1)NC(=O)c1cnccn1)B(O)O (configuration not stated) + NC1CCC(NC2CC2c2ccccc2)CC1
IC50 [1]: < 0.316 nM
IC50 [2]: < 0.316 nM
IC50 [3]: < 0.316 nM
IC50 [4]: < 0.316 nM
IC50 [5]: < 0.316 nM
viability, T/C (second compound 0.1 µM, first compound 0.000316 µM): 9.27%
viability, T/C (second compound 0.1 µM, first compound 0.001 µM): 1.3%
viability, T/C [36]: 3.65%
viability, T/C [37]: 0.1%
viability, T/C [38]: 0.06%
viability, T/C [39]: 0.11%
viability, T/C (second compound 0.316 µM, first compound 0.000316 µM): 8.56%
viability, T/C (second compound 0.316 µM, first compound 0.001 µM): 1.25%
viability, T/C [40]: 0.38%
viability, T/C [41]: 0.1%
viability, T/C [42]: 0.09%
viability, T/C [43]: 0.14%
viability, T/C (second compound 1 µM, first compound 0.000316 µM): 10.1%
viability, T/C (second compound 1 µM, first compound 0.001 µM): 1.4%
viability, T/C [44]: 0.35%
viability, T/C [45]: 0.2%
viability, T/C [46]: 0.03%
viability, T/C [47]: 2.22%
viability, T/C (second compound 3.16 µM, first compound 0.000316 µM): 9.75%
viability, T/C (second compound 3.16 µM, first compound 0.001 µM): 3.48%
viability, T/C [48]: 0.44%
viability, T/C [49]: 0.14%
viability, T/C [50]: 0.04%
viability, T/C [51]: 1.61%
viability, T/C (second compound 10 µM, first compound 0.000316 µM): 5.79%
viability, T/C (second compound 10 µM, first compound 0.001 µM): 0.65%
viability, T/C [52]: 0.32%
viability, T/C [53]: 0.23%
viability, T/C [54]: 0.09%
viability, T/C [55]: 0.37%

NC1CCC(NC2CC2c2ccccc2)CC1 (configuration not stated)
viability, T/C (compound 0.316 µM): 79.8% and 83.8% and 81.9%
IC50 (compound alone, run of 02/15/2022): > 10000 nM

Nc1ncn(C2CC(O)C(CO)O2)c(=O)n1 (configuration not stated) + NC1CC1c1ccc(-c2cccc(O)c2)cc1
IC50 [1]: > 1000 nM
IC50 [2]: > 1000 nM
IC50 [3]: > 1000 nM
IC50 [4]: > 1000 nM
IC50 [5]: > 1000 nM
viability, T/C [36]: 102%
viability, T/C [37]: 98.4%
viability, T/C [38]: 97.7%
viability, T/C [39]: 88.4%
viability, T/C [56]: 93.8%
viability, T/C [57]: 85.1%
viability, T/C [40]: 102%
viability, T/C [41]: 98.6%
viability, T/C [42]: 95.1%
viability, T/C [43]: 96.2%
viability, T/C [58]: 90.8%
viability, T/C [59]: 90.4%
viability, T/C [44]: 106%
viability, T/C [45]: 102%
viability, T/C [46]: 95%
viability, T/C [47]: 96.3%
viability, T/C [60]: 92.6%
viability, T/C [61]: 85.1%
viability, T/C [48]: 102%
viability, T/C [49]: 96%
viability, T/C [50]: 95.8%
viability, T/C [51]: 96%
viability, T/C [62]: 87%
viability, T/C [63]: 82.1%
viability, T/C [52]: 82.4%
viability, T/C [53]: 80.6%
viability, T/C [54]: 81.4%
viability, T/C [55]: 81%
viability, T/C [64]: 80%
viability, T/C [65]: 74.8%

COc1cc(Nc2ncc3c(n2)-c2ccc(Cl)cc2C(c2c(F)cccc2OC)=NC3)ccc1C(=O)O + NC1CCC(NC2CC2c2ccccc2)CC1
IC50 [1]: > 1000 nM
IC50 [2]: > 1000 nM
IC50 [3]: > 1000 nM
IC50 [4]: > 1000 nM
IC50 [5]: > 1000 nM
viability, T/C [36]: 105%
viability, T/C [37]: 99.2%
viability, T/C [38]: 100%
viability, T/C [39]: 99.6%
viability, T/C [56]: 93.7%
viability, T/C [57]: 60.1%
viability, T/C [40]: 111%
viability, T/C [41]: 92.9%
viability, T/C [42]: 98.6%
viability, T/C [43]: 95.9%
viability, T/C [58]: 92.4%
viability, T/C [59]: 59.2%
viability, T/C [44]: 112%
viability, T/C [45]: 107%
viability, T/C [46]: 93.5%
viability, T/C [47]: 105%
viability, T/C [60]: 88.5%
viability, T/C [61]: 62.2%
viability, T/C [48]: 110%
viability, T/C [49]: 104%
viability, T/C [50]: 95.7%
viability, T/C [51]: 88.3%
viability, T/C [62]: 92%
viability, T/C [63]: 60.9%
viability, T/C [52]: 113%
viability, T/C [53]: 111%
viability, T/C [54]: 97.6%
viability, T/C [55]: 104%
viability, T/C [64]: 86.7%
viability, T/C [65]: 60.7%
